These results are taken from ChEMBL document CHEMBL1201862, “PubChem BioAssay data set” (2004).

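96-well plates; 48 h exposure; 5 concentrations. Endpoints by linear interpolation between flanking doses. Not reached: highest tested concentration assigned. Abbreviation: GI50, concentration required for 50% inhibition of growth.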 Calls of active or inactive are those of the source. Cut-off read from the data, not from the text of the source: active = GI50 up to about 1.1 µM and inactive = higher.

Assay in all cases: NCI anticancer screen, dose series, 48 h
Experiment [1] relates to A549.
Experiment [2] relates to BT-549.
Experiment [3] has as its system CAKI-1.
For experiment [4], the system named is EKVX.
Experiment [5] has as its system HL-60.
The test system of experiment [6] is IGROV-1.
Experiment [7] relates to KM12.
Experiment [8] relates to MCF7.
For experiment [9], the system named is MDA-MB-231.
In experiment [10] the test system is NCI-H226.
The test system of experiment [11] is OVCAR-8.
The test system of experiment [12] is SK-MEL-5.
In experiment [13] the test system is SN12C.
In experiment [14] the test system is SNB-19.
Experiment [15] relates to SR.
Experiment [16] concerns SW-620.
Experiment [17] relates to T47D.
In experiment [18] the test system is TK-10.
The test system of experiment [19] is UO-31.

With `Brc1ccc2[nH]cc(-c3csc(-c4ccccn4)n3)c2c1`, the GI50 is 14.5 µM (inactive) in [1]; > 89.3 µM (inactive) in experiment [2]; 17.1 µM (inactive) in experiment [3]; 9.44 µM (inactive) in experiment [4]; 26.5 µM (inactive) in experiment [5]; 23 µM (inactive) in [6]. Further, the GI50 in experiment [7] is 9.16 µM (inactive); in experiment [8], 10.3 µM (inactive); in [9] it was 22.9 µM (inactive); in [10], 11.6 µM (inactive); in [11] it was 26.9 µM (inactive); in experiment [12], 16.4 µM (inactive). Moreover, the GI50 is 14.4 µM (inactive) in [13]; 35 µM (inactive) in [14]; 15.4 µM (inactive) in experiment [15]; 18.4 µM (inactive) in experiment [16]; 10.7 µM (inactive) in experiment [17]; 24.2 µM (inactive) in [18]. Also, in experiment [19], the GI50 was 59.7 µM (inactive).

Consider `CCOC1=C(c2ccccc2)N2CCCCC2O1` (centres undefined), for which the GI50 in experiment [1] was 5.57 µM (inactive); in experiment [2], 5.33 µM (inactive); in [3], 26.5 µM (inactive); in [4], 5.19 µM (inactive); in experiment [5], 1.5 µM (inactive); in [6] it was 5.78 µM (inactive). For the same compound, the GI50 in experiment [7] was 3.27 µM (inactive); in experiment [8] it was 3.76 µM (inactive); in experiment [9], 3.61 µM (inactive); in experiment [10] it was 3.42 µM (inactive); in experiment [11], 3.89 µM (inactive); in [12], 1.7 µM (inactive). Further, the GI50 in [13] was 8.85 µM (inactive); in experiment [14] it was 3.76 µM (inactive); in experiment [15], 3.71 µM (inactive); in experiment [16] it was 4.21 µM (inactive); in experiment [17], 2.04 µM (inactive); in experiment [18], 5.32 µM (inactive). In addition, the GI50 in [19] is 19.8 µM (inactive).

For `C[N+](C)(C)C(Cc1c[nH]c(=S)[nH]1)C(=O)O` (centres undefined), the GI50 in experiment [1], in [2], in experiment [3], in experiment [4], in experiment [5] and in [6] was > 100 µM (inactive) throughout. In addition, the GI50 in [7], in experiment [8], in experiment [9], in [10], in experiment [11] and in experiment [12] was > 100 µM (inactive) each time. Also, the GI50 in experiment [13], in experiment [14], in experiment [15], in experiment [16], in [17] and in experiment [18] was > 100 µM (inactive) throughout. Also, in experiment [19], the GI50 is > 100 µM (inactive).

`Cc1ccc2c(c1)C(=O)c1ccc(C)nc1C2=O`: the GI50 in [1] is 31.8 µM (inactive); in experiment [2], 25.6 µM (inactive); in [3] it was 41.7 µM (inactive); in experiment [4] it was 40.7 µM (inactive); in [5], 26.7 µM (inactive); in experiment [6] it was 27.7 µM (inactive). Moreover, the GI50 in experiment [7] was 27.9 µM (inactive); in experiment [8] it was 27.4 µM (inactive); in experiment [9] it was 3.98 µM (inactive); in [10] it was > 100 µM (inactive); in experiment [11] it was 46.9 µM (inactive); in experiment [12], 13.2 µM (inactive). Besides, the GI50 in experiment [13] is 20.4 µM (inactive); in experiment [14], 22.2 µM (inactive); in [15] it was 34.1 µM (inactive); in experiment [16], 27.9 µM (inactive); in experiment [17], 62.7 µM (inactive); in experiment [18], > 100 µM (inactive). Besides, the GI50 in experiment [19] was 40.9 µM (inactive).

Turning to `O=S(=O)(O)C(c1ccccc1)C(O)c1ccccc1` (centres undefined), the GI50 in experiment [1], in experiment [2], in experiment [3], in experiment [4], in [5] and in experiment [6] was > 100 µM (inactive) each time. Also, the GI50 in [7], in [8], in experiment [9], in [10], in experiment [11] and in [12] was > 100 µM (inactive) throughout. Besides, the GI50 in experiment [13], in [14], in experiment [15], in experiment [16], in [17] and in [18] was > 100 µM (inactive) in each case. Further, the GI50 in [19] was > 100 µM (inactive).

With `O=C1Nc2ccccc2/C1=N/NC(=S)NCc1ccccn1`, the GI50 in [1] is 0.466 µM (active); in [2], 1.09 µM (active); in experiment [3] it was 0.0951 µM (active); in [4] it was 0.294 µM (active); in experiment [5], < 0.01 µM (active); in experiment [6] it was 0.0721 µM (active). Moreover, the GI50 in experiment [7] is 0.698 µM (active); in experiment [8], < 0.01 µM (active); in experiment [9], 0.0721 µM (active); in [10] it was 0.604 µM (active); in experiment [11], 0.346 µM (active); in experiment [12], 0.551 µM (active). Further, the GI50 in experiment [13] was 1.27 µM (inactive); in experiment [14], 0.678 µM (active); in [15], < 0.01 µM (active); in [16] it was 0.126 µM (active); in [17], 0.0343 µM (active); in experiment [18], 2.52 µM (inactive). Also, the GI50 in [19] is 0.373 µM (active).

Take `Nc1nc(SCC(=O)c2ccc(Br)cc2)c2nc[nH]c2n1`: the GI50 in experiment [1] was 55 µM (inactive); in experiment [2] it was 27 µM (inactive); in experiment [3] it was 26.2 µM (inactive); in experiment [4], 38.5 µM (inactive); in experiment [5], 25.3 µM (inactive); in experiment [6] it was 13.6 µM (inactive). Also, the GI50 in experiment [7] is 44.8 µM (inactive); in experiment [8], 56.4 µM (inactive); in [9], 52.1 µM (inactive); in experiment [10], 27.1 µM (inactive); in [11] it was 28.8 µM (inactive); in [12], 20 µM (inactive). The GI50 in [13] is 34.4 µM (inactive); in experiment [14] it was > 100 µM (inactive); in experiment [15], 17.9 µM (inactive); in [16], 46.6 µM (inactive); in experiment [17] it was 25.8 µM (inactive); in experiment [18], 20.8 µM (inactive). Moreover, in experiment [19], the GI50 was 27.4 µM (inactive).

Consider `O=[N+]([O-])c1ccc(C(Nc2ccccc2)c2ccc3cccnc3c2O)cc1` (centres undefined), for which the GI50 in experiment [1] was 8.04 µM (inactive); in [2], 10.3 µM (inactive); in [3], 6.25 µM (inactive); in experiment [4] it was 6.04 µM (inactive); in experiment [5], 3.37 µM (inactive); in experiment [6], 10.6 µM (inactive). For the same compound, the GI50 is 7.94 µM (inactive) in experiment [7]; 4.83 µM (inactive) in [8]; 16.2 µM (inactive) in experiment [9]; 3.78 µM (inactive) in experiment [10]; 3.85 µM (inactive) in experiment [11]; 7.18 µM (inactive) in experiment [12]. Also, the GI50 is 7.94 µM (inactive) in experiment [13]; 7.74 µM (inactive) in [14]; 0.474 µM (active) in [15]; 6.27 µM (inactive) in experiment [16]; 5.25 µM (inactive) in experiment [17]; 8.49 µM (inactive) in [18]. The GI50 in experiment [19] was 6.78 µM (inactive).

As for `COc1ccc2c(c1C)C(=O)C(O)(CC=C(C)C)O2` (centres undefined), the GI50 in [1], in experiment [2], in experiment [3], in experiment [4], in [5] and in experiment [6] was > 100 µM (inactive) each time. Moreover, the GI50 in [7], in [8], in [9], in experiment [10], in experiment [11] and in experiment [12] was > 100 µM (inactive) in each case. Further, the GI50 in experiment [13], in [14], in experiment [15], in experiment [16], in experiment [17] and in experiment [18] was > 100 µM (inactive) in each case. The GI50 in experiment [19] is > 100 µM (inactive).

Turning to `O=C(CSc1nc2ccc(I)cc2c(=O)n1Cc1ccccc1)NN1C(=O)c2ccccc2C1=O`, the GI50 in [1] was 18 µM (inactive); in [2], 15.4 µM (inactive); in experiment [3] it was 9.23 µM (inactive); in experiment [4] it was 12.9 µM (inactive); in experiment [5], 16.7 µM (inactive); in [6] it was 19.3 µM (inactive). Also, the GI50 is 31.2 µM (inactive) in [7]; 23.3 µM (inactive) in experiment [8]; 11.2 µM (inactive) in [9]; 6.3 µM (inactive) in [10]; 11.8 µM (inactive) in experiment [11]; 18.1 µM (inactive) in experiment [12]. In addition, the GI50 in experiment [13] is 18.8 µM (inactive); in experiment [14], 16.5 µM (inactive); in experiment [15] it was 25.7 µM (inactive); in [16], 27.5 µM (inactive); in experiment [17] it was 15.8 µM (inactive); in [18], 13.7 µM (inactive). In addition, in experiment [19], the GI50 was 2.37 µM (inactive).

Consider `CCOP(=O)(OCC)C(Nc1ccc(F)cc1)c1ccccc1` (centres undefined), for which the GI50 in experiment [1] is > 100 µM (inactive); in [2], 79.6 µM (inactive); in [3], > 100 µM (inactive); in [4], > 100 µM (inactive); in experiment [5], 77.4 µM (inactive); in experiment [6] it was > 100 µM (inactive). For the same compound, the GI50 in experiment [7], in experiment [8], in [9], in experiment [10], in [11] and in experiment [12] was > 100 µM (inactive) in each case. For the same compound, the GI50 was 43.8 µM (inactive) in experiment [13]; > 100 µM (inactive) in experiment [14]; 97.7 µM (inactive) in experiment [15]; > 100 µM (inactive) in experiment [16]; 35.1 µM (inactive) in experiment [17]; > 100 µM (inactive) in experiment [18]. Besides, the GI50 in [19] was 82.2 µM (inactive).
